According to EP1889617A1, “Triphenyl modified 5-membered heterocycles and their use as anticancer and antiflammatory agents” (Freie Universität Berlin, priority 2006, dated 2008):

Tests used:
MCF-7 cells = assay: Cytotoxic effects, concentration dependent test (IC50), crystal violet staining; type: cell-based; settings: Homo sapiens, MCF7; estrogen receptor positive MCF-7 cells; incubation of 72 h
Protocol: (§1) The cytotoxic assay in estrogen receptor positive MCF-7 cells has been described previously by Ruenitz, P.C. et al. (1997) J. Steroid Biochem. Mol. Biol. 63, 203-209). Fiation, staining and quantitation of the cells were carried out according to Gillies (Gillies, R.J. et al. (1986) Anal. Biochem. 159, 109-113) and Kueng (Kueng, W. et al. (1989) Anal. Biochem. 182, 16-19). Moreover the test was carried out with estrogen receptor negative MD-MB 231 cells. MCF-7 cells (MDA-MB 231 cells) from an almost confluent monolayer were harvest by trypsinization and suspended to approximately 7 x 10^3 cells/mL (1 x 10^3 cells/mL). At the beginning of the experiment, the cell suspension was transferred to 96-well microplates (100 µL/well). After cultivating them for 3 days at growing conditions the medium was removed and replaced by one containing the test compounds. Control wells (16/plate) were contained 0.1% of DMSO, which was used for the preparation of the stock solutions. The initial cell density was determined by addition of glutaric dialdehyde (1 % in PBS; 100 µL/well). After incubation for 3-7 days, the medium was removed, and glutaric dialdehyde (1 % in PBS; 100 µL/well) was added for fixation. After 15 min, the solution of the aldehyde was decanted and 180 µL PBS/well added. The plates were stored at 4°C until staining. Cells were stained by treating them for 25 min with 100 µL of an aqueous solution of crystal violet (0.02%). After decanting cells were washed several times with water to remove the adherent dye. After addition of 180 µL of ethanol (70%), plates were gently shaken for 4 h. Optical density of each well was measured in a microplate autoreader at 590 nm.
(§2) MCF-7 cells (MDA-MB 231 cells) from an almost confluent monolayer were harvested by trypsinization and suspended to approximately 10 × 10^3 cells/mL (5 x 10^3 cells/mL). After cultivating them for 3 days at growing conditions the medium was removed and replaced by one containing the test compounds (control wells 8/plate). After incubation of 72 h (48 h) the medium was removed and the test was continued as descried above.

MDA-MB 231 cells = assay: as above; type: cell-based; settings: Homo sapiens; estrogen receptor negative MDA-MB 231 cells; incubation of 48 h
Protocol: as §1, §2

estrogen receptor = target: T1, estrogen receptor (Homo sapiens, UniProt P03372); assay: Whole Cell Assay (WCA): competitive estrogen receptor binding against [3H]17β-estradiol; settings: test compound 10^-6 M, 1 h incubation (37°C), percentage to a solvent treated control sample
T1 construct: endogenous in cells; host or cells: MCF-7
T1 sequence (P03372 1-595): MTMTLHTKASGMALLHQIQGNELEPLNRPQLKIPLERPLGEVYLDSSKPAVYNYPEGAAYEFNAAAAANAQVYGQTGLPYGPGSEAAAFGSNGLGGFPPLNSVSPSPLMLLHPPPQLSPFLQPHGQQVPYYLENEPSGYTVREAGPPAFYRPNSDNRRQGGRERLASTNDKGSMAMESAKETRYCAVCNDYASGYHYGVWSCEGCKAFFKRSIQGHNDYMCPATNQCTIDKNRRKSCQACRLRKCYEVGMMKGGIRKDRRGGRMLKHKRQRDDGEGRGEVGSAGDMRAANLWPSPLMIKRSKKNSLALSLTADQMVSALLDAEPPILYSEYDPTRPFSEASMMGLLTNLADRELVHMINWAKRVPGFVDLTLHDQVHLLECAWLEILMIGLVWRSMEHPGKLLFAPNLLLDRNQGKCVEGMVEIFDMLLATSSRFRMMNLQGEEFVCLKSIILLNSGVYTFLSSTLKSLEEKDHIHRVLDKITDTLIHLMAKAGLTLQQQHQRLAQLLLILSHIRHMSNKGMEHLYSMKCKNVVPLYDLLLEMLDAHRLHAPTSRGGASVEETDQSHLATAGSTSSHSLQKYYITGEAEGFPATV
Protocol: (§3) ER binding affinity is measured in competitive binding assays compared to estradiol. Binding affinity is expressed as a relative binding affinity (RBA) in percent compared to estradiol which is assigned an affinity of 100%. Substantial affinity for ER is indicated by an RBA of about 0,1% or more. Good affinity binding to ER is indicated by an RBA of about 1%- to about 10%. High affinity binding to ER is indicated by an RBA of about 10% or higher.
MCF-7 cells were plated in 24-well dishes (4 x 10^4 cells/well) and cultured for 48 h. After the incubation the medium was replaced by test compounds diluted in serum free medium containing [^3H]17β-Estradiol ([^3H]E2). Additional wells of each test compound concentration were filled with 500-fold excess of unlabeled E2 for nonspecific binding measurements. After 1 h incubation (37°C) the medium was removed and monolayer washed three times with an ice-cold saline solution. Bond E2 was then extracted from the monolayer with 1 mL ethanol at room temperature (20 min of incubation) and aliquots of 200 µL of ethanolic extracts were transferred to scintillation vials containing 3.8 mL scintillator Ecoscint H (National Diagnostic, Atlanta) for radioactivity counting. All measurements were performed in duplicate. Specific [^3H]E2 incorporation into the cells was calculated from the difference in incorporated radioactivity after incubation in the absence or presence of an excess of unlabeled E2. The results (relative radioactivity) were expressed as a percentage to a solvent treated control sample.

[1] = target: T2, recombinant human estrogen receptor (hERα) (Homo sapiens, UniProt P03372); assay: Recombinant ERα (HAP Assay): competitive binding against [3H]E2 on hydroxylapatite; settings: hERα adsorbed on hydroxylapatite; test compound 10^-6 M; overnight at 4°C; percentage to a solvent treated control sample
T2 construct: purchased Calbiochem
T2 sequence (P03372 1-595): T1 sequence (P03372 1-595)
Protocol: as §3
An ethanolic solution (250 fmol/µL) of recombinant human estrogen receptor (hERα) (Calbiochem) was diluted with Tris-HCl buffer pH 8.0 (1:100). This hERα preparations adsorbed on hydroxylapatite pellets (prepared in 10 mmol/L Tris HCl buffer pH 8.0) which were labeled with increasing concentrations of the test compound (10^-10 - 10^-5 M) and [^3H]E2 (0.1 %) in presence or absence of 200-fold excess of unlabeled E2 and were incubated overnight at 4°C. Bond [^3H]E2 were then successively extracted with ethanol and aliquots of 200 µL of ethanolic extracts were transferred to scintillation vials containing 3.8 mL scintillator Ecoscint H (National Diagnostic, Atlanta) for radioactivity counting. The data interpretation was carried out as shown above.

Relative radioactivity of labeled [^3H]E2; RBA-value MCF-7 cells (WCA); 10^-6 M (estrogen receptor) [%]	Relative radioactivity of labeled [^3H]E2; RBA-value HAP-Assay; 10^-6 M [1] [%]	SMILES	IC50 (MCF-7 cells) [µM]	IC50 (MDA-MB 231 cells) [µM]
13.1 ± 3.2	19.1 ± 1.5	Oc1ccc(-c2cc(-c3ccc(O)cc3Cl)[nH]c2-c2ccc(O)cc2Cl)cc1 [Example 9, 2,5-Bis(2-chloro-4-hydroxyphenyl)-3-(4-hydroxyphenyl)-1H-pyrrole]	7.6	13.4
–	–	CC(C)Cc1c(-c2ccc(O)cc2Cl)cc(-c2ccc(O)cc2)n1-c1ccc(O)cc1 [Example 21, 4-(2-Chloro-4-hydroxyphenyl)-5-isobutyl-1,2-bis(4-hydroxyphenyl)-1H-pyrrole]	15.2	16.1
–	–	COc1ccc(-c2cc(-c3ccc(OC)cc3Cl)c(C)n2-c2ccc(OC)cc2)cc1 [Example 13, 4-(2-Chloro-4-methoxyphenyl)-1,2-bis(4-methoxyphenyl)-5-methyl-1H-pyrrole]	23.6	20.3
–	–	Cc1c(-c2ccc(O)cc2Cl)cc(-c2ccc(O)cc2)n1-c1ccc(O)cc1 [Example 18, 4-(2-Chloro-4-hydroxyphenyl)-1,2-bis(4-hydroxyphenyl)-5-methyl-1H-pyrrole]	23.4	17.4
–	–	Oc1ccc(-c2cc(-c3ccc(O)cc3Cl)[nH]c2-c2ccc(Cl)cc2O)cc1 [Example 11, 5-(2-Chloro-4-hydroxyphenyl)-2-(4-chloro-2-hydroxyphenyl)-3-(4-hydroxyphenyl)-1H-pyrrole]	10.5	14
35.3 ± 4.9	26.4 ± 8.3	Oc1ccc(-c2cc(-c3ccc(O)cc3)c(-c3ccc(O)cc3Cl)[nH]2)cc1 [Example 7, 2-(2-Chloro-4-hydroxyphenyl)-3,5-bis(4-hydroxyphenyl)-1H-pyrrole]	16.4	13.5
41.2 ± 8.3	30.1 ± 5.1	CCc1c(-c2ccc(O)cc2Cl)cc(-c2ccc(O)cc2)n1-c1ccc(O)cc1 [Example 19, 4-(2-Chloro-4-hydroxyphenyl)-5-ethyl-1,2-bis(4-hydroxyphenyl)-1H-pyrrole]	17.8	18.4
–	–	Oc1ccc(-c2cc(-c3ccc(O)cc3)c(-c3ccc(Cl)cc3O)[nH]2)cc1 [Example 10, 2-(4-Chloro-2-hydroxyphenyl)-3,5-bis(4-hydroxyphenyl)-1H-pyrrole]	9.2	18.8
–	–	COc1ccc(-c2cc(-c3ccc(OC)cc3Cl)[nH]c2-c2ccc(OC)cc2)cc1 [Example 2, 5-(2-Chloro-4-methoxyphenyl)-2,3-bis(4-methoxyphenyl)-1H-pyrrole]	9.5	10.3
–	–	COc1ccc(-c2cc(-c3ccc(OC)cc3Cl)c(CC(C)C)n2-c2ccc(OC)cc2)cc1 [Example 16, 4-(2-Chloro-4-methoxyphenyl)-5-isobutyl-1,2-bis(4-methoxyphenyl)-1H-pyrrole]	18	15.2
78.1 ± 4.4	70.3 ± 6.1	CCCc1c(-c2ccc(Cl)cc2O)[nH]c(-c2ccc(O)cc2)c1-c1ccc(O)cc1 [Example 12, 2-(4-Chloro-2-hydroxyphenyl)-4,5-bis(4-hydroxyphenyl)-3-propyl-1H-pyrrole]	8.1	6.5
–	–	CCCc1c(-c2ccc(OC)cc2F)cc(-c2ccc(OC)cc2)n1-c1ccc(OC)cc1 [Example 17, 4-(2-Fluoro-4-methoxyphenyl)-1,2-bis(4-methoxyphenyl)-5-propyl-1H-pyrrole]	17.8	18.4
–	–	CCCc1c(-c2ccc(O)cc2Cl)cc(-c2ccc(O)cc2)n1-c1ccc(O)cc1 [Example 20, 4-(2-Chloro-4-hydroxyphenyl)-1,2-bis(4-hydroxyphenyl)-5-propyl-1H-pyrrole]	19.5	16.2
–	–	COc1ccc(-c2cc(-c3ccc(OC)cc3)c(-c3ccc(OC)cc3Cl)[nH]2)cc1 [Example 1, 2-(2-Chloro-4-methoxyphenyl)-3,5-bis(4-methoxyphenyl)-1H-pyrrole]	17.7	27.4
